Measured values taken from US20240041976A1, “COMPOSITION AND USE” (priority 2020, published 2024).
Where two headings read alike, the source gives them in different places. No end group written: not given here.

What was measured:
[1] = system: S. pseudintermedius MRSP 45; assay: microbe, parasite or virus in culture; format: cell-based, Staphylococcus pseudintermedius; conditions: 24 h; for MIC: Staphylococcus pseudintermedius, MRSP45, MRSP 45, Table 8, read-out: MIC, single component
Protocol: (§1) Antimicrobial activity was measured using the AAMP assay (Wiegand et al., 2008, Nat. Protoc., Vol. 3(2), p 163-175).
(§2) Synergy testing was done with a microtiter plate checkerboard assay as previously described (Orhan et al., 2005, J. Clin. Microbiol., Vol. 43(1), p 140-143). Briefly, equal amounts of antimicrobial A were applied on microtiter plate 1 in wells A1-H1 and then diluted two-fold to wells 2-12. Similarly, equal amounts of antimicrobial B were applied on microtiter plate 2 in wells A1-A12 and diluted two-fold in wells B-H. Volumes of 50 μl of antimicrobial A from each well of microtiter plate 1 were transferred into microtiter plate 3, except for wells H1-H12. Similarly, the same volumes were transferred from microtiter plate 2 into plate 3, except for wells A1-A8. A 100 μl volume of 25 times diluted ON bacterial culture of MRSA was transferred into each well of plate 3. A 50 μl volume of pure broth was added into each well in lines H1-H12 and A1-A8 which were used to estimate MIC values of pure substances (blank).
(§3) Antimicrobial activity was measured using the AAMP assay as described in Example 2.
(§4) Synergy testing was performed as in Example 2.

MRSA 43484 = assay: AAMP assay and checkerboard synergy; format: cell-based, Staphylococcus aureus; conditions: MRSA 43484; for MIC: Staphylococcus aureus, 24 h, read-out: MIC, single antimicrobial
Protocol: as §1, §2
(§5) Three-component synergy was assessed by mixing the three components (100 μg of PenG, 50 μg of GarKS and 2.5 μg of MP1) into one well of a microtiter plate, compared with activity of individual antimicrobials on the same plate. The fractional inhibition concentration (FIC) which was used to define synergy was calculated as set forth in Example 1.

MRSA ATCC 33591-lux = assay: AAMP assay and checkerboard synergy; format: cell-based, Staphylococcus aureus; conditions: for MIC: Staphylococcus aureus, 24 h, read-out: MIC, single antimicrobial
Protocol: as §1, §2, §5

MRSA USA-300 = assay: AAMP assay and checkerboard synergy; format: cell-based, Staphylococcus aureus; conditions: MRSA USA-300; for MIC: Staphylococcus aureus, 24 h, read-out: MIC, single antimicrobial
Protocol: as §1, §2, §5

[2] = system: three MRSA strains (ATCC33591-lux, USA-300 and MRSA 43484); assay: AAMP assay and checkerboard synergy, summary; format: cell-based, Staphylococcus aureus; conditions: for synergy with GarKS: checkerboard assay
Protocol: as §2, with “Briefly,” for “Synergy testing was done with a microtiter plate checkerboard assay as previously described (Orhan et al., 2005, J. Clin. Microbiol., Vol. 43(1), p 140-143). Briefly,”, “A 100 μl volume of 25 times diluted ON bacterial culture of MRSA was transferred into each well of plate 3.” left out
Three-component synergy was assessed by mixing the three components (100 μg of PenG, 50 μg of GarKS and 2.5 μg of MP1) into one well of a microtiter plate, compared with activity of individual antimicrobials on the same plate.

S. aureus LMG3026 = assay: AAMP assay (MIC), single components and formulation mixture; format: cell-based, Staphylococcus aureus; conditions: Staphylococcus aureus, LMG3026, 24 h; read-out: MIC, single component
Protocol: as §1, §5

S. aureus LMG3242 = assay: as above; format: cell-based, Staphylococcus aureus; conditions: Staphylococcus aureus, LMG3242, 24 h; read-out: MIC, single component
Protocol: as §1, §5

S. aureus LMG3255 = assay: as above; format: cell-based, Staphylococcus aureus; conditions: Staphylococcus aureus, LMG3255, 24 h; read-out: MIC, single component
Protocol: as §1, §5

S. aureus LMG3258 = assay: as above; format: cell-based, Staphylococcus aureus; conditions: Staphylococcus aureus, LMG3258, 24 h; read-out: MIC, single component
Protocol: as §1, §5

S. aureus LMG3263 = assay: as above; format: cell-based, Staphylococcus aureus; conditions: Staphylococcus aureus, LMG3263, 24 h; read-out: MIC, single component
Protocol: as §1, §5

S. aureus LMG3264 = assay: as above; format: cell-based, Staphylococcus aureus; conditions: Staphylococcus aureus, LMG3264, 24 h; read-out: MIC, single component
Protocol: as §1, §5

S. aureus LMG3265 = assay: as above; format: cell-based, Staphylococcus aureus; conditions: Staphylococcus aureus, LMG3265, 24 h; read-out: MIC, single component
Protocol: as §1, §5

S. aureus LMG3266 = assay: as above; format: cell-based, Staphylococcus aureus; conditions: Staphylococcus aureus, LMG3266, 24 h; read-out: MIC, single component
Protocol: as §1, §5

S. aureus LMG3271 = assay: as above; format: cell-based, Staphylococcus aureus; conditions: Staphylococcus aureus, LMG3271, 24 h; read-out: MIC, single component
Protocol: as §1, §5

S. aureus LMG3307 = assay: as above; format: cell-based, Staphylococcus aureus; conditions: Staphylococcus aureus, LMG3307, 24 h; read-out: MIC, single component
Protocol: as §1, §5

S. aureus LMG3314 = assay: as above; format: cell-based, Staphylococcus aureus; conditions: Staphylococcus aureus, LMG3314, 24 h; read-out: MIC, single component
Protocol: as §1, §5

S. aureus LMG3322 = assay: as above; format: cell-based, Staphylococcus aureus; conditions: Staphylococcus aureus, LMG3322, 24 h; read-out: MIC, single component
Protocol: as §1, §5

S. aureus LMG3328 = assay: as above; format: cell-based, Staphylococcus aureus; conditions: Staphylococcus aureus, LMG3328, 24 h; read-out: MIC, single component
Protocol: as §1, §5

MRSA ATCC 33591 = assay: microbe, parasite or virus in culture; format: cell-based, Staphylococcus aureus; conditions: for MIC: Staphylococcus aureus, 24 h, read-out: MIC, single antimicrobial
Protocol: as §1, §2, §3, §4

| Molecule | MIC of the antimicrobial in comb. with GarKS (MRSA 43484) [µg/mL] | MIC (MRSA 43484) [µg/mL] | MIC of the antimicrobial in comb. with GarKS (MRSA ATCC 33591-lux; MRSA ATCC 33591-lux) [µg/mL] | MIC of the antimicrobial in comb. with GarKS (MRSA USA-300) [µg/mL] | MIC (MRSA USA-300) [µg/mL] | MIC of the antimicrobial in comb. with GarKS ([2]; All three strains) [µg/mL] | synergy with GarKS [2] | MIC (S. aureus LMG3026) [µg/mL] | MIC (S. aureus LMG3255) [µg/mL] | MIC (S. aureus LMG3263) [µg/mL] | MIC (S. aureus LMG3264) [µg/mL] | MIC (S. aureus LMG3265) [µg/mL] | MIC (S. aureus LMG3271) [µg/mL] | MIC (S. aureus LMG3307) [µg/mL] | MIC (S. aureus LMG3322) [µg/mL] | MIC [1] [µg/mL] | MIC of MP1 in comb. with the labelled antimicrobial (MRSA ATCC 33591) [µg/mL] | MIC of the labelled antimicrobial in comb. with MP1 (MRSA ATCC 33591) [µg/mL] | MIC (MRSA ATCC 33591) [µg/mL] | other results |
| --- | --- | --- | --- | --- | --- | --- | --- | --- | --- | --- | --- | --- | --- | --- | --- | --- | --- | --- | --- | --- |
| MIKKFPNPYTLAAKLTTYEINWYKQQYGRYPWERPVA [EJ97 short] |  |  |  |  |  |  |  |  |  |  |  |  |  |  |  |  |  |  |  | MIC, single component [1]: >25 µg/mL |
| CC[C@H]1OC(=O)[C@H](C)[C@@H](O[C@H]2C[C@@](C)(OC)[C@@H](O)[C@H](C)O2)[C@H](C)[C@@H](O[C@@H]2O[C@H](C)C[C@H](N(C)C)[C@H]2O)[C@](C)(O)C[C@@H](C)C(=O)[C@H](C)[C@@H](O)[C@]1(C)O [Ery, Erythromycin] | 32 | 62 | 62 | 16 | 31 | 16 to 62 | no synergy or only additive effects | < 2.5 | < 2.5 | > 2500 | < 2.5 | > 2500 | < 2.5 | < 2.5 | < 2.5 | > 250 |  |  |  | MIC, single antimicrobial (MRSA ATCC 33591-lux; MRSA ATCC 33591-lux): >250 µg/mL; MIC (MRSA ATCC 33591-lux; MRSA ATCC 33591-lux): > 250 µg/mL; MIC (S. aureus LMG3242): < 2.5 µg/mL; MIC (S. aureus LMG3258): < 2.5 µg/mL; MIC (S. aureus LMG3266): > 2500 µg/mL; MIC (S. aureus LMG3314): < 2.5 µg/mL; MIC (S. aureus LMG3328): < 2.5 µg/mL |
| CC1(C)S[C@@H]2[C@H](NC(=O)[C@H](N)c3ccccc3)C(=O)N2[C@H]1C(=O)O [Amp, Ampicillin] | 16 | < 2500 | 16 | 16 | < 2500 | 16 | moderate synergy |  |  |  |  |  |  |  |  |  |  |  |  | MIC (MRSA ATCC 33591-lux): < 2500 µg/mL; MIC of the component when combined ([2]; GarKS with Amp or PenG): 16 µg/mL; MIC ([2]; Staphylococcus aureus, 24 h, All three strains, read-out: MIC, single antimicrobial): > 2500 µg/mL |
| CC(C)=CCCC(C)=CCCC(C)=CCO [Farnesol] |  |  |  |  |  |  |  |  |  |  |  |  |  |  |  |  | 0.08 | 14 | 56 |  |
| CC(=O)O[C@H]1C[C@@]2(C)[C@@H](C[C@@H](O)[C@H]3[C@@]4(C)CC[C@@H](O)[C@@H](C)[C@@H]4CC[C@@]32C)/C1=C(\CCC=C(C)C)C(=O)O [Fusidic acid] |  |  |  |  |  |  |  |  |  |  |  |  |  |  |  | 1.25 | 0.15 | 0.04 | 0.6 |  |
| C=C(NC(=O)[C@@H](NC(=O)[C@H](Cc1c[nH]cn1)NC(=O)[C@@H](NC(=O)[C@H](CO)NC(=O)[C@@H]1CS[C@@H](C)[C@H]2NC(=O)[C@H](C)NC(=O)[C@H](NC(=O)[C@H](CCCCN)NC(=O)[C@H](CCSC)NC(=O)[C@H](CC(N)=O)NC(=O)[C@@H]3CS[C@@H](C)[C@@H](NC(=O)[C@H](CCCCN)NC(=O)[C@@H]4CS[C@@H](C)[C@@H](NC(=O)[C@@H]5CSC[C@@H](NC(=O)/C(=C/C)NC(=O)[C@@H](N)[C@@H](C)CC)C(=O)N[C@@H]([C@@H](C)CC)C(=O)NC(=C)C(=O)N[C@@H](CC(C)C)C(=O)N5)C(=O)N5CCC[C@H]5C(=O)NCC(=O)N4)C(=O)NCC(=O)N[C@@H](C)C(=O)N[C@@H](CC(C)C)C(=O)N[C@@H](CCSC)C(=O)NCC(=O)N3)[C@H](C)SC[C@H](NC2=O)C(=O)N[C@@H](CC(N)=O)C(=O)N1)[C@@H](C)CC)C(C)C)C(=O)N[C@@H](CCCCN)C(=O)O [nisinZ] |  |  |  |  |  |  |  |  |  |  |  |  |  |  |  |  | 0.3 | 0.8 |  | MIC, single antimicrobial (MRSA ATCC 33591): >12.5 µg/mL |
| CN(C)[C@@H]1C(O)=C(C(N)=O)C(=O)[C@@]2(O)C(O)=C3C(=O)c4c(O)cccc4[C@@](C)(O)[C@H]3C[C@@H]12 [Tet, Tetracycline] | 0.6 |  | 38 | 0.6 |  |  |  | 77 | 2.4 | 2.4 | 2.4 | 2.4 | 2.4 | 0.6 | < 0.3 | 150 | 0.08 | 10 | 150 |  |
| [H]/N=C(/N)N[C@H]1[C@H](O)[C@@H](O)[C@H](O[C@@H]2O[C@@H](C)[C@](O)(C=O)[C@H]2O[C@@H]2O[C@@H](CO)[C@H](O)[C@@H](O)[C@@H]2NC)[C@@H](N/C(N)=N\[H])[C@@H]1O [Str, Streptomycin] | 32 | 62 | 32 | 32 | 62 | 32 | moderate synergy with GarKS only against two MRSA out of three | 31 | 125 | 31 | > 250 | 31 | 125 | 62 | 62 | > 2500 |  |  |  | MIC, single antimicrobial (MRSA ATCC 33591-lux; MRSA ATCC 33591-lux): >2500 µg/mL; MIC (MRSA ATCC 33591-lux; MRSA ATCC 33591-lux): > 2500 µg/mL; MIC (S. aureus LMG3242): 250 µg/mL; MIC (S. aureus LMG3258): 62 µg/mL; MIC (S. aureus LMG3266): > 125 µg/mL; MIC (S. aureus LMG3314): 62 µg/mL; MIC (S. aureus LMG3328): 62 µg/mL |
